Tests used:
[1] = Suntest exposure (xenon emitter) of permanent-waved natural hair, 15% extension level in the wet state; settings: Example 2 styling foam (0.5 g UVINUL MS 40 in 100 g composition before aerosol packaging), no rinse, 180 hours Suntest, vs foam without UVINUL MS 40
Method: Permanent-waved natural hair receives an application of this foam and then, without this being followed by a rinse, is subjected to 180 hours' exposure to the Suntest, as described in Example 1.

[2] = Suntest exposure (xenon emitter) of bleached hair, 15% extension level in the wet state; settings: 120 hours Suntest; for mean value of the 15% extension level in the wet state: no rinse

COc1cc(O)c(C(=O)c2ccccc2)cc1S(=O)(=O)O [UVINUL MS 40, 2-hydroxy-4-methoxybenzophenone-5-sulphonic acid]
mean value of the 15% extension level in the wet state [1]: significant improvement
mean values of the 15% extension level in the wet state ([2]; Example 1 shampoo (1 g/100 g UVINUL MS 40), washed five times, vs shampoo base without UVINUL MS 40): substantial improvement
mean value of the 15% extension level in the wet state ([2]; Example 3 styling gel (0.3 g/100 g UVINUL MS 40), three applications, vs gel without UVINUL MS 40): significant improvement
mean value of the 15% extension level in the wet state ([2]; Example 4 styling spray (1 g/100 g UVINUL MS 40), one application, vs spray without UVINUL MS 40): improved very appreciably
